According to patent US10849893B2 (Athenex HK Innovative Limited, priority 2018, dated 2020):
Where “and” joins values, the source holds several entries; their conditions need not be identical. Identical values can stand only once. Like-named read-outs stand apart in the source and are kept apart here.

Experiments:
[1] = Two phase 1 studies of docetaxel capsules administered orally in combination with HM30181A; type: in vivo, human
[2] = set-up: Dose Normalized AUC: unit not given beside the values; details: cited from earlier work
[3] = 75 mg/m^2 over 28 days, monotherapy schedule for mHRPC; cited from earlier work
[4] = oral 225 mg/m^2 with Compound A, Mean, N=3
[5] = oral 225 mg/m^2 with Compound A, individual subjects
[6] = male, human, in vivo, po, 75 mg/m2
[7] = mean oral (75 mg/m^2) as % of mean IV (60 mg/m^2)
[8] = IV 20 mg/m^2, infusion 1 h, n = 1
[9] = IV 20 mg/m^2, infusion 24 h, n = 1
[10] = IV 30 mg/m^2, infusion 1.58 (0.80) h, n = 2
[11] = IV 40 mg/m^2, infusion 1 h, n = 1
[12] = IV 40 mg/m^2, infusion 24 h, n = 3
[13] = IV 55 mg/m^2, infusion 1.68 (0.75) h, n = 3
[14] = IV 55 mg/m^2, infusion 24 h, n = 4
[15] = IV 70 mg/m^2, infusion 1.37 (0.53) h, n = 2
[16] = IV 70 mg/m^2, infusion 24 h, n = 3
[17] = IV 85 mg/m^2, infusion 1.61 (0.81) h, n = 6
[18] = IV 90 mg/m^2, infusion 24 h, n = 5
[19] = IV 100 mg/m^2, infusion 2.03 (0.09) h, n = 4
[20] = IV 115 mg/m^2, infusion 1.84 (0.28) h, n = 4
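Wherever AUC % Extrapobs is given: noncompartmental pharmacokinetic analysis in subjects with solid tumors, using linear-up log-down interpolation, with terminal slope time points picked automatically by the software.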
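Wherever AUC0-12 is given: noncompartmental pharmacokinetic analysis in subjects with solid tumors, using linear-up log-down interpolation, with terminal slope time points picked automatically by the software.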
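Wherever AUC0-48 is given: noncompartmental pharmacokinetic analysis in subjects with solid tumors, using linear-up log-down interpolation, with terminal slope time points picked automatically by the software.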
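Wherever AUCINF—obs is given: noncompartmental pharmacokinetic analysis in subjects with solid tumors, using linear-up log-down interpolation, with terminal slope time points picked automatically by the software.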

For `CC(=O)O[C@@]12CO[C@@H]1C[C@H](O)[C@@]1(C)C(=O)[C@H](O)C3=C(C)[C@@H](OC(=O)[C@H](O)[C@@H](NC(=O)OC(C)(C)C)c4ccccc4)C[C@@](O)([C@@H](OC(=O)c4ccccc4)[C@H]21)C3(C)C` [docetaxel, (2aR,4S,4aS,6R,9S,11S,12S,12aR,12b S)-12b-acetoxy-9-(((2R,3S)-3-((tert-butoxycarbonyl)amino)-2-hydroxy-3-phenylpropanoyl)oxy)-4,6,11-trihydroxy-4a,8,13,13-tetramethyl-5-oxo-2a,3,4,4a,5,6,9,10,11,12,12a, 12b-dodecahydro-1H-7,11-methanocyclodeca[3,4]benzo[1,2-b]oxet-12-yl benzoate], the AUC0-24 (oral 150 mg/m^2 with Compound A, individual subjects by cancer diagnosis, listed as Docetaxel) was 1050 ng·h/mL and 720 ng·h/mL and 490 ng·h/mL, the AUC0-12 [4] was 618 ng·h/mL and the “AUC % Extrapobs” value [4] was 4.93%. The Cmax [4] was 114 ng/mL, the Tmax [4] was 1.00 h and the AUC0-12 [5] was 835 ng·h/mL and 380 ng·h/mL and 637 ng·h/mL. For the same compound, the AUC0-24 [5] was 416 ng·h/mL and 974 ng·h/mL, the AUC0-48 [5] was 1100 ng·h/mL and 443 ng·h/mL and 1200 ng·h/mL and the “AUC % Extrapobs” value [5] was 6.48% and 3.06% and 5.26%. The “AUCINF—obs” value [5] was 1390 ng·h/mL and 517 ng·h/mL and 1650 ng·h/mL, the Cmax [5] was 139 ng/mL and 84.7 ng/mL and the Tmax [5] was 2.00 h. The t1/2 [5] was 46.1 h, the AUC ([1]; human, plasma, iv, 75 mg/m2, IV 75 mg/m^2) was 2420 ng·h/mL and the AUC ([1]; human, plasma, po, oral 35 mg/m^2 with HM30181A 15 mg) was 248 ng·h/mL. The AUC ([1]; human, plasma, po, oral 75 mg/m^2 with HM30181A 15 mg) was 692 ng·h/mL, the AUC ([1]; human, plasma, po, oral 150 mg/m^2 with HM30181A 15 mg) was 888 ng·h/mL and the AUC ([1]; human, plasma, po, oral 225 mg/m^2 with HM30181A 15 mg) was 1400 ng·h/mL. The bioavailability ([1]; human, plasma, oral 75 mg/m^2 with HM30181A 15 mg, read-out: Individual F %) was 20 to 31%, the Tmax ([1]; human, plasma, oral capsules in combination with HM30181A) was 3 to 4 h and the half-life ([1]; human, plasma, oral capsules in combination with HM30181A, read-out: terminal phase half-life (converted)) was about 56 h. The “Cmax as % of that observed after IV administration” value ([1]; oral with HM30181A vs IV) was 9.5-13%, the “Tmax Mean %” value (clinical; male, human, in vivo) was 207.55% and the “Average Time above Target (0 to last time point measured above 4 ng/ml)” value (clinical; male, human, in vivo, iv) was 40.9 h. The “Dose Normalized AUC” value (clinical; male, human, in vivo, iv) was 27.17 ng·h/mL, the AUC(0-t) (clinical; male, human, in vivo, iv, 60 mg/m2, AUC0-24) was 1350 to 1970 ng·h/mL and the AUC(0-inf) (clinical; male, human, in vivo, iv, 60 mg/m2, AUC0-inf) was 1970 ng·h/mL. The AUC(0-t) (clinical; male, human, in vivo, iv, 60 mg/m2, AUC0-t) was 1890 ng·h/mL, the Cmax (clinical; male, human, in vivo, iv, 60 mg/m2, Cmax) was 1020 to 1570 ng/mL and the Tmax (clinical; male, human, in vivo, iv, 60 mg/m2, Tmax) was 0.88 h. For the same compound, the half-life (clinical; male, human, in vivo, iv, Reported half-life) was 17.4 h, the “Average Time above Target (0 to last time point measured above 4 ng/ml)” value (clinical; male, human, in vivo, po) was 20.5 h and the “Dose Normalized AUC” value (clinical; male, human, in vivo, po) was 23.33 ng·h/mL. For the same compound, the AUC(0-inf) (clinical; [6]) was 476 ng·h/mL, the half-life (clinical; [6]) was 21.3 h and the AUC(0-t) (clinical; male, human, in vivo, po, 75 mg/m2, AUC0-24) was 313 to 336 ng·h/mL. For the same compound, the AUC(0-inf) (clinical; male, human, in vivo, po, 75 mg/m2, AUC0-inf) was 478 ng·h/mL, the AUC(0-t) (clinical; male, human, in vivo, po, 75 mg/m2, AUC0-t) was 395 ng·h/mL and the half-life (clinical; male, human, in vivo, po, 75 mg/m2, Reported half-life) was 16.4 h. For the same compound, the Tmax (clinical; male, human, in vivo, po, 75 mg/m2, Tmax) was 1.83 h, the “Cmax Mean %” value (clinical; [7]) was 7.87% and the “t1/2 Mean %” value (clinical; [7]) was 104.60%. The AUC0-24 [2, 8] was 960 ng·h/mL, the “Dose Normalized AUC” value [2, 8] was 48 and the “t1/2 γ” value [2, 8] was 2.2 h. For the same compound, the AUC0-24 [2, 9] was 920 ng·h/mL, the “Dose Normalized AUC” value [2, 9] was 46 and the AUC0-24 [2, 10] was 1260 ng·h/mL. The Cmax [2, 10] was 640 (450) ng/ml, the “Dose Normalized AUC” value [2, 10] was 42 and the “t1/2 γ” value [2, 10] was 4.6 h. The AUC0-24 [2, 11] was 670 ng·h/mL, the Cmax [2, 11] was 420 ng/mL and the “Dose Normalized AUC” value [2, 11] was 16.75. The “t1/2 γ” value [2, 11] was 3.8 h, the AUC0-24 [2, 12] was 2190 ng·h/mL and the “Dose Normalized AUC” value [2, 12] was 54.75. For the same compound, the AUC0-24 [2, 13] was 1420 ng·h/mL, the Cmax [2, 13] was 820 (380) ng/ml and the “Dose Normalized AUC” value [2, 13] was 25.82. For the same compound, the “t1/2 γ” value [2, 13] was 2 h, the AUC0-24 [2, 14] was 2560 ng·h/mL and the “Dose Normalized AUC” value [2, 14] was 46.55. For the same compound, the AUC0-24 [2, 15] was 2790 ng·h/mL, the Cmax [2, 15] was 1910 (320) ng/ml and the “Dose Normalized AUC” value [2, 15] was 39.86. For the same compound, the “t1/2 γ” value [2, 15] was 2.5 h, the AUC0-24 [2, 16] was 3470 ng·h/mL and the “Dose Normalized AUC” value [2, 16] was 49.57. For the same compound, the AUC0-24 [2, 17] was 4100 ng·h/mL, the Cmax [2, 17] was 2420 (920) ng/ml and the “Dose Normalized AUC” value [2, 17] was 48.24. For the same compound, the “t1/2 γ” value [2, 17] was 13.6 h, the AUC0-24 [2, 18] was 7810 ng·h/mL and the “Dose Normalized AUC” value [2, 18] was 86.78. For the same compound, the AUC0-24 [2, 19] was 5930 ng·h/mL, the Cmax [2, 19] was 2410 (250) ng/ml and the “Dose Normalized AUC” value [2, 19] was 59.30. For the same compound, the “t1/2 γ” value [2, 19] was 18.5 h, the AUC0-24 [2, 20] was 5190 ng·h/mL and the Cmax [2, 20] was 2680 (930) ng/ml. The “Dose Normalized AUC” value [2, 20] was 45.13, the “t1/2 γ” value [2, 20] was 9.6 h and the “target AUC” value [3] was 3410 ± 980 ng·h/mL.
